Reference: patent publication US20250052985A1, “SYSTEM AND METHOD FOR QUANTITATIVE PHASE IMAGING FOR MULTI-PARAMETRIC SCREENING OF TUMOR THERAPY RESPONSE” (UNIVERSITY OF UTAH RESEARCH FOUNDATION, priority 2023, published 2025)
Values joined by “and” are separate entries in the source; they are usually repeats but may differ in a detail not shown here. Equal values may be shown once.

Assays:
[1] = tested on: BT-474 cells; test: CellTiter-Glo (CTG) ATP viability assay, BT-474; format: cell-based; details: for Hill Slope / log10(EC50): BT-474, Hill fit; for Min Asymptote: BT-474, Hill fit of luminescence normalized to solvent control, one line per replicate
Method in brief: (§1)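 Cell viability was read as ATP content by CellTiter-Glo luminescence after replacing media with reagent, shaking 20 min and resting 10 min. Signal was normalized to solvent control, and a 4-parameter Hill fit to the dose response gave EC50 and depth of response.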

[2] = tested on: BT-474 cells; test: cells; details: for Max Asymptote / Min Asymptote: BT-474, 4-parameter Hill fit of mean SGR vs concentration, one line per replicate; for Hill Slope / log10(EC50): BT-474, Hill fit; for log10(EC50): EC50 in μM per Table 1
Method in brief: (§2)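 Breast cancer lines imaged noninvasively by DPC-based quantitative phase imaging across 6-point dose responses in triplicate with solvent controls, for 24 h or 72 h after 3 h equilibration, then CellTiter-Glo ATP viability. Mean specific growth rate fitted to a 4-parameter Hill curve for EC50, with an F-test (p<0.01) against a flat line to determine response.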

[3] = tested on: MCF-7 cells; test: cells
Method in brief: as §2

[4] = tested on: MDA-MB-231 cells; test: Quantitative phase imaging (QPI) growth response, MDA-MB-231; format: cell-based; set-up: DoR QPI: scale not given here; ToR 20 μM: unit not given here; details: for Max Asymptote / Min Asymptote: MDA-MB-231, 4-parameter Hill fit of mean SGR vs concentration, one line per replicate; for log10(EC50): EC50 in μM per Table 1
Method in brief: as §2

[5] = tested on: MCF-7 cells; test: CellTiter-Glo (CTG) ATP viability assay, MCF-7; format: cell-based; details: for Min Asymptote: MCF-7, Hill fit of luminescence normalized to solvent control, one line per replicate
Method in brief: as §1

With `CCC(=C(c1ccc(O)cc1)c1ccc(OCCN(C)C)cc1)c1ccccc1` [4HT, 4-hydroxy-Tamoxifen] the “Hill Slope” value ([1]; 24 h CTG) was 4.596, the “log10(EC50)” value ([1]; 24 h CTG) was −0.736 and the “Min Asymptote” value ([1]; 24 h CTG) was 0.07942. The “Hill Slope” value ([1]; 72 h CTG) was 3.312 and 3.655, the “log10(EC50)” value ([1]; 72 h CTG) was −0.6116 and −0.6471 and the “Min Asymptote” value ([1]; 72 h CTG) was 1.76E−08 (2×) and 8.28E−08. For the same compound, the EC50 ([1]; BT-474 cell line, CellTiter-Glo, read-out: EC50, CTG) was 4.2 µM, the “DoR CTG” value ([1]; BT-474 cell line, depth of response, CellTiter-Glo) was 1.0 and the “Max Asymptote” value ([2]; 24 h QPI) was 0.01232 and 0.00969 and 0.009107. For the same compound, the “Min Asymptote” value ([2]; 24 h QPI) was −0.01613 and −0.02375 and −0.02493, the “Hill Slope” value ([2]; 24 h QPI) was 2.303 and 3.2307 and 3.3723 and the “log10(EC50)” value ([2]; 24 h QPI) was −1.1593 and −1.2498 and −1.2667. The “Max Asymptote” value ([2]; 72 h QPI) was −0.01224 and −0.01212 and −0.01166, the “Min Asymptote” value ([2]; 72 h QPI) was 0.009052 and 0.007511 and 0.008099 and the “Hill Slope” value ([2]; 72 h QPI) was 3.3746 and 3.7567 and 4.6177. For the same compound, the “log10(EC50)” value ([2]; 72 h QPI) was −1.2566 and −1.2595 and −1.2511, the “response of growth rate and heterogeneity to treatment” value ([2]; BT-474, FIG. 5E, 22, 23) was “both reduced growth rate and slightly increased heterogeneity” and the “growth rate and heterogeneity as concentration increases” value ([2]; BT-474, FIG. 22) was “decrease in growth rate at approximately constant standard deviation”. For the same compound, the “growth rate and heterogeneity over time” value ([2]; BT-474, FIG. 23 Graph F) was “first experiencing reduced growth rate, and then a large spike in heterogeneity”, the “DoR QPI” value ([2]; BT-474 cell line, depth of response, QPI) was 2.5 and the “ToR 20 μM” value ([2]; BT-474 cell line, time of response at 20 μM) was −0.9815. The EC50 ([2]; read-out: EC50, QPI, BT-474 cell line, QPI growth rate) was 18 µM, the “Max Asymptote” value ([3]; 24 h QPI, MCF-7, 4-parameter Hill fit of mean SGR vs concentration, one line per replicate) was 0.02753 and 0.02505 (2×) and the “log10(EC50)” value ([3]; 24 h QPI, MCF-7, Hill fit, EC50 in μM per Table 1) was −1.3545. The “Min Asymptote” value ([3]; 72 h QPI, MCF-7, 4-parameter Hill fit of mean SGR vs concentration, one line per replicate) was 0.02137 and 0.02094 and 0.02499, the “DoR QPI” value ([3]; MCF-7 cell line, depth of response, QPI) was 2.1 and the “ToR 20 μM” value ([3]; MCF-7 cell line, time of response at 20 μM) was −1.3078. The EC50 ([3]; read-out: EC50, QPI, MCF-7 cell line, QPI growth rate) was 75.2 µM, the “Max Asymptote” value ([4]; 24 h QPI) was 0.02875 and 0.03107 and 0.03303 and the “Min Asymptote” value ([4]; 24 h QPI) was 0.007676 and 0.007611 and −0.003024. For the same compound, the “log10(EC50)” value ([4]; 24 h QPI, MDA-MB-231, Hill fit) was −1.2332 and −1.2248 and −1.2436, the “Max Asymptote” value ([4]; 72 h QPI) was −0.006134 and −0.01506 and −0.008455 and the “Min Asymptote” value ([4]; 72 h QPI) was 0.02885 and 0.03029 and 0.03246. For the same compound, the “Hill Slope” value ([4]; 72 h QPI, MDA-MB-231, Hill fit) was 2.0951 and 2.4347 and 1.6101, the “log10(EC50)” value ([4]; 72 h QPI, MDA-MB-231, Hill fit) was −1.2344 and −1.2249 and −1.0505 and the “growth rate and heterogeneity over time” value ([4]; MDA-MB-231, highest concentration, FIG. 21 F) was “first decreases in growth rate and then decreases in heterogeneity”. The “mean SGR vs SD of growth parameterized by time” value ([4]; MDA-MB-231, maximal concentration, FIG. 5D) was “reduction in growth rate before heterogeneity is affected”, the EC50 ([4]; MDA-MB-231 cell line, QPI growth rate, read-out: EC50, QPI) was 15.1 µM and the “DoR QPI” value ([4]; MDA-MB-231 cell line, depth of response, QPI) was 1.3. For the same compound, the “ToR 20 μM” value ([4]; MDA-MB-231 cell line, time of response at 20 μM) was 1.0, the “Min Asymptote” value ([5]; 24 h CTG) was 7.96E−12 and 5.22E−09 and the “log10(EC50)” value ([5]; 72 h CTG, MCF-7, Hill fit) was −0.5373 and −0.5549 and −0.6776. The “Min Asymptote” value ([5]; 72 h CTG) was 2.23E−14 and 2.22E−14 and 3.01E−12, the EC50 ([5]; MCF-7 cell line, CellTiter-Glo, read-out: EC50, CTG (converted)) was 3.9 µM and the “DoR CTG” value ([5]; MCF-7 cell line, depth of response, CellTiter-Glo) was 1.0.
